Measured values: patent publication US7038021B2, “Anti-dioxins monoclonal antibody suitable for assaying dioxins in environment and hybridoma producing the same” (priority 2004, dated 2006)
Converted amounts (≈) assume the structure as drawn.

Legend:
[1] = tested on: monoclonal antibody Dx02-I-0; assay: Cross-reactivity of monoclonal antibody Dx02-I-0 by indirect competitive assay (ELISA, II-1 immobilized); type: binding, mouse; conditions: for IC50: indirect competitive assay, immobilized II-1, 20% DMSO and 0.01% Triton-X100, room temperature 10 to 30 minutes; for Cross-reactivity: obtained from IC50 values, 1,2,3,7,8-PeCDF = 100; for reactivity (cross-reactivity) of the antibody: assuming the reactivity with 1,2,3,7,8-PeCDF is 100%
Protocol: According to the method used for determination of the antibody titer, antigen II-1 or II-2 was immobilized onto wells of a microtiter plate and the wells were washed. A solution (300 μl) of Block Ace 4-fold diluted with deionized water was then added to the wells, and the wells were blocked by allowing it to stand at room temperature for 2 hours. The wells were washed three times with the washing solution (300 μl). The supernatant (25 μl) of the culture containing a primary antibody as well as a solution (25 μl) of various concentrations of a phenoxathiin derivative (I-1 or I-2), which is a compound for screening having a structure similar to that of dioxins and having a reduced toxicity, in 20% DMSO and 0.01% Triton-X100, or a solution (25 μl) of various concentrations of dioxins in 20% DMSO and 0.01% Triton-X100, or a solution (25 μl) containing neither the phenoxathiin derivatives nor the dioxins in 20% DMSO and 0.01% Triton-X100 which serves as a control were then added to the wells and mixed in the wells. The wells were allowed to stand at room temperature for 10 to 30 minutes to effect an antigen-antibody reaction.
The wells were washed three times with the washing solution (300 μl). Then, in order to detect the primary antibody which was bound to II-1 or II-2 immobilized onto the plate, a solution (50 μl) of a horseradish peroxidase-labeled anti-mouse IgG (recognizing γ-chain) prepared by 3000-fold diluting with a solution of Block Ace 10-fold diluted with deionized water was added to the wells as a solution of a secondary antibody, and reacted at room temperature for one our. After the wells were again washed three times with the washing solution (300 μl), a TMB solution was added to the wells, and a coloration reaction was effected at room temperature. After 5 to 15 minutes, the reaction was terminated by adding 1 M phosphoric acid (50 μl), and the absorbance at 450 nm was immediately measured using a microplate reader. The ratio (B/B0) of an absorbance value (B) in the well to which one of phenoxathiin derivatives or dioxins was added, to an absorbance value (control OD; B0) in the well to which only a solution of 20% DMSO and 0.01% Triton-X100 was added but neither the phenoxathiin derivatives nor the dioxins were added, was calculated to evaluate the reactivity of the primary antibody. A hybridoma in the well in which a continuously high production of an antibody having a high binding activity against the antigens was recognized was selected, expanded, and cloned by a limiting dilution method.
Using monoclonal antibody Dx02-I-0, the cross-reactivity with 17 kinds of dioxins each having a toxicity value and 12 kinds of coplanar PCBs was evaluated by an indirect competitive assay. II-1 (50 μl) was added to wells in a microtiter plate, and the wells were allowed to stand at room temperature for one hour and then washed. After the wells were blocked, various concentrations of one of dioxins (25 μl) dissolved in 20% DMSO and 0.01% Triton-X100 or a solution (25 μl) of 20% DMSO and 0.01% Triton-X100 not containing any dioxin which serves as a control as well as a solution (25 μl) of the antibody diluted with 0.01 to 0.1% BSA were added to the wells in the plate, and reacted at room temperature for 10 to 30 minutes.
Then, a coloration reaction was effected using a secondary antibody against the antibody bound to the solid phase, i.e. a peroxidase-labeled anti-mouse IgG antibody (recognizing γ-chain) as well as TMB. After the enzyme reaction was terminated, the absorbance at 450 nm was immediately measured. The B/B0 values were plotted for various dioxins, IC50 values were calculated from the resulting figures, and the cross-reactivity of the antibody was obtained from these values (Table 3).

[2] = WHO-TEF, toxicity of 2,3,7,8-TCDD taken as 1; cited from earlier work
[3] = tested on: antibody of non-patent reference 2; conditions: assuming the reactivity with 1,2,3,7,8-PeCDF is 100%; cited from earlier work
[4] = tested on: monoclonal antibody Dx02-I-0; assay: Standard curve by indirect competitive assay, inhibition by 2,3,4,7,8-PeCDF; type: binding, mouse; conditions: purified antibody Dx02-I-0, immobilized II-1, FIG. 1
Protocol: II-1 was immobilized onto a microtiter plate at room temperature for one hour, and the plate was washed three Limes with the washing solution (300 μl). A solution (300 μl) of Block Ace prepared by 4-fold diluting with deionized water was then added to the wells, and the wells were blocked at room temperature for 2 hours. The wells were washed three times with the washing solution. […]
The wells were then washed, and a secondary antibody, i.e. a solution (50 μl) of a horseradish peroxidase-labeled anti-mouse IgG (recognizing γ-chain) prepared by 3000-fold diluting with a solution of Block Ace 10-fold diluted with deionized water was added to the wells, and reacted at room temperature for one hour. […] After 5 to 15 minutes, the reaction was terminated by adding 1 M phosphoric acid (50 μl), and the absorbance at 450 nm was immediately measured using a microplate reader. The ratio (B/B0) of an absorbance value (B) in the well to which one of dioxins was added, to control OD (B0) was calculated, and the calculated values were plotted against the concentrations of the added dioxin with single logarithm to obtain a typical sigmoid curve (FIG. 1).

SMILES | IC50 [1] | Cross-reactivity [1] | TEF [2] | reactivity (cross-reactivity) of the antibody [1] | Cross-reactivity [3] | detectable concentration in the assay system [4]
Clc1cc2c(c(Cl)c1Cl)Oc1c(Cl)c(Cl)c(Cl)c(Cl)c1O2 [1,2,3,4,6,7,8-HpCDD] | >0.1 µg/mL | <1 | 0.01 | – | – | –
Clc1cc2c(oc3c(Cl)c(Cl)c(Cl)c(Cl)c32)c(Cl)c1Cl [1,2,3,4,6,7,8-HpCDF] | >0.1 µg/mL | <1 | 0.01 | – | – | –
Clc1cc2oc3c(Cl)c(Cl)c(Cl)c(Cl)c3c2c(Cl)c1Cl [1,2,3,4,7,8,9-HpCDF] | 0.00267 µg/mL (≈ 0.00652 µM) | 34 | 0.01 | 34% | – | –
Clc1cc2c(cc1Cl)Oc1c(Cl)c(Cl)c(Cl)c(Cl)c1O2 [1,2,3,4,7,8-HxCDD] | >0.1 µg/mL | <1 | 0.1 | – | – | –
Clc1cc2oc3c(Cl)c(Cl)c(Cl)c(Cl)c3c2cc1Cl [1,2,3,4,7,8-HxCDF] | >0.1 µg/mL | <1 | 0.1 | – | 45.9% | –
Clc1cc2c(c(Cl)c1Cl)Oc1cc(Cl)c(Cl)c(Cl)c1O2 [1,2,3,6,7,8-HxCDD] | 0.000984 µg/mL (≈ 0.00252 µM) | 93 | 0.1 | 93% | – | –
Clc1cc2c(oc3cc(Cl)c(Cl)c(Cl)c32)c(Cl)c1Cl [1,2,3,6,7,8-HxCDF] | >0.1 µg/mL | <1 | 0.1 | – | 36.6% | –
Clc1cc2c(c(Cl)c1Cl)Oc1c(cc(Cl)c(Cl)c1Cl)O2 [1,2,3,7,8,9-HxCDD] | 0.00106 µg/mL (≈ 0.00271 µM) | 86 | 0.1 | 86% | 39.8% | –
Clc1cc2oc3cc(Cl)c(Cl)c(Cl)c3c2c(Cl)c1Cl [1,2,3,7,8,9-HxCDF] | 0.0355 µg/mL (≈ 0.0947 µM) | 3 | 0.1 | – | 42.7% | –
Clc1cc2c(cc1Cl)Oc1c(cc(Cl)c(Cl)c1Cl)O2 [1,2,3,7,8-PeCDD] | 0.0296 µg/mL (≈ 0.083 µM) | 3 | 1 | – | – | –
Clc1cc2oc3cc(Cl)c(Cl)c(Cl)c3c2cc1Cl [1,2,3,7,8-PeCDF] | 0.000915 µg/mL (≈ 0.00269 µM) | 100 | 0.05 | – | – | –
Clc1cc(-c2cc(Cl)c(Cl)c(Cl)c2Cl)cc(Cl)c1Cl [2,3,3′,4,4′,5,5′-HpCB] | >0.1 µg/mL | <1 | 0.0001 | – | – | –
Clc1ccc(-c2cc(Cl)c(Cl)c(Cl)c2Cl)cc1Cl [2,3,3′,4,4′,5-HxCB] | >0.1 µg/mL | <1 | 0.0005 | – | – | –
Clc1cc(-c2ccc(Cl)c(Cl)c2Cl)cc(Cl)c1Cl [2,3,3′,4,4′,5′-HxCB] | >0.1 µg/mL | <1 | 0.0005 | – | – | –
Clc1ccc(-c2ccc(Cl)c(Cl)c2Cl)cc1Cl [2,3,3′,4,4′-PeCB] | >0.1 µg/mL | <1 | 0.0001 | – | – | –
Clc1ccc(-c2cc(Cl)c(Cl)c(Cl)c2Cl)cc1 [2,3,4,4′,5-PeCB] | >0.1 µg/mL | <1 | 0.0005 | – | – | –
Clc1cc2c(oc3c(Cl)c(Cl)c(Cl)cc32)c(Cl)c1Cl [2,3,4,6,7,8-HxCDF] | 0.000989 µg/mL (≈ 0.00264 µM) | 93 | 0.1 | 93% | 43.8% | –
Clc1cc2oc3c(Cl)c(Cl)c(Cl)cc3c2cc1Cl [2,3,4,7,8-PeCDF, 2,3,4,7,8-pentachlorodibenzofuran] | 0.00586 µg/mL (≈ 0.0172 µM) | 16 | – | 16% | – | ≤ 1 ng/mL
Clc1cc2c(cc1Cl)Oc1cc(Cl)c(Cl)cc1O2 [2,3,7,8-TeCDD, 2,3,7,8-tetrachlorodibenzo-p-dioxin] | 0.0072 µg/mL (≈ 0.0224 µM) | 13 | 1 | 13% | – | –
Clc1cc2oc3cc(Cl)c(Cl)cc3c2cc1Cl [2,3,7,8-TeCDF] | 0.0123 µg/mL (≈ 0.0402 µM) | 7 | 0.1 | – | – | –
Clc1cc(Cl)c(-c2cc(Cl)c(Cl)c(Cl)c2)cc1Cl [2,3′,4,4′,5,5′-HxCB] | >0.1 µg/mL | <1 | 0.00001 | – | – | –
Clc1ccc(-c2cc(Cl)c(Cl)cc2Cl)cc1Cl [2,3′,4,4′,5-PeCB] | >0.1 µg/mL | <1 | 0.0001 | – | – | –
Clc1ccc(-c2cc(Cl)c(Cl)c(Cl)c2)c(Cl)c1 [2′,3,4,4′,5-PeCB] | >0.1 µg/mL | <1 | 0.0001 | – | – | –
Clc1cc(-c2cc(Cl)c(Cl)c(Cl)c2)cc(Cl)c1Cl [3,3′,4,4′,5,5′-HxCB] | 0.0629 µg/mL (≈ 0.174 µM) | 1 | 0.01 | – | – | –
Clc1ccc(-c2cc(Cl)c(Cl)c(Cl)c2)cc1Cl [3,3′,4,4′,5-PeCB] | 0.0537 µg/mL (≈ 0.165 µM) | 2 | 0.1 | – | – | –
Clc1ccc(-c2ccc(Cl)c(Cl)c2)cc1Cl [3,3′,4,4′-TeCB] | >0.1 µg/mL | <1 | 0.0001 | – | – | –
Clc1ccc(-c2cc(Cl)c(Cl)c(Cl)c2)cc1 [3,4,4′,5-TeCB] | >0.1 µg/mL | <1 | 0.0001 | – | – | –
Clc1c(Cl)c(Cl)c2c(c1Cl)Oc1c(Cl)c(Cl)c(Cl)c(Cl)c1O2 [OCDD] | >0.1 µg/mL | <1 | 0.0001 | – | – | –
Clc1c(Cl)c(Cl)c2c(oc3c(Cl)c(Cl)c(Cl)c(Cl)c32)c1Cl [OCDF] | >0.1 µg/mL | <1 | 0.0001 | – | – | –
